Measurements from US11434194B2, “Amorphous form of vilanterol trifenatate and processes for the preparation thereof” (Hovione Scientia Limited, priority 2017, dated 2022).
One block for each molecule: values may come before it.

How the values were obtained:
Format in all cases: physicochemical
[1] = Visual solubility in differing solvents (European Pharmacopeia 6.0 section 5.11)
Experimental: Visual solubility of the amorphous form of the invention in differing solvents was assessed according to the procedure described in the European Pharmacopeia 6.0 section 5.11. p. 659 (see corresponding SI dissolution ranges in Table 2), and compared with that for Form 1. The following method was used: Dissolving procedure: the compound was shaken vigorously for 1 min and placed in a constant temperature device for 15 min at 25.0±0.5° C. If the compound was not completely dissolved, the shaking was repeated for 1 min and the tube placed in a constant temperature device for 15 min. Method: 50 mg of compound was weighed in a stoppered tube, 0.05 mL of the solvent added and the Dissolving Procedure (see above) followed. If the compound was completely dissolved, it was defined very soluble. If the compound was not completely dissolved, a further 0.45 mL of the solvent was added and the Dissolving Procedure (see above) followed. […] If the compound was still not completely dissolved, still further 1.0 mL of the solvent was added and the Dissolving Procedure (see above) followed. If the compound was completely dissolved, it was defined as soluble. If the compound was still not completely dissolved, another 3.5 mL of the solvent was added and the Dissolving Procedure (see above) followed. […] If the compound was still not completely dissolved, the compound was slightly soluble or very slightly soluble. In this case, the suspension was heated up to the boiling point (max 80° C.) under stirring to verify the solubility at high temperature. The hot solution was afterwards cooled to room temperature to observe whether the compound precipitates. If the compound at room, temperature was completely dissolved, it is soluble at high temperature. [table]

[2] = Dynamic vapour sorption (DVS) analysis / kinetic moisture sorption, hygroscopicity; details: for Change In Mass (%) Desorption / Change In Mass (%) Hysteresis / Change In Mass (%) Sorption: 25° C.
Experimental: The values in the table are weight % variations that result from the use of the European Pharmacopoeia equation provided below. The hygroscopicity value is indicated from the sorption row at 80% RH of cycle 1.
The sample was subjected to DVS measuring using SMS-DVS intrinsic. The kinetic moisture sorption measurement was performed at 25° C. and in a RH % range described in the following: • From 40% RH to 90% RH • Form 90% RH to 0% RH • From 0% RH to 90% RH • From 90% RH to 0% RH
The sample was analyzed by XRPD after the analysis.
The hygroscopicity was calculated using the following equation: % Weight Change=[(W2−W1)/W1]*100, (1) wherein W1 is the weight of the sample at the start of the experiment (25° C. and 40% RH), and W2 is the weight of the sample at 25° C. and 80% RH in the first absorption cycle.

[3] = Solid-state storage stability (XRPD pattern, HPLC chromatogram)
Experimental: Such conditions reflect conditions similar to those in which the current medicaments (mentioned above) may be stored.
HPLC analysis was conducted using a waters system under the following conditions:
X-ray powder patterns were recorded using the PANalytical X'Pert PRO X-ray diffraction system equipped with a PW3373/00 Cu LFF DK184511 X-Ray tube and a X'Celerator RTMS (Real Time Multiple Strip) detector under the following conditions: […]

visual solubility ([1]; 1,4-dioxane at 25° C., listed as amorphous of vilanterol trifenatate): soluble | visual solubility ([1]; ethanol at 50° C.): sparingly soluble | mass increase (dynamic vapour sorption analysis; hygroscopicity value) ([2]; 80% RH at 25° C., sorption, cycle 1): 1.34% | hygroscopicity classification (European Pharmacopeia version 7) ([2]; % weight change from 40% RH to 80% RH at 25° C., first absorption cycle): slightly hygroscopic | Change In Mass (%) Desorption ([2]; Cycle 1, target RH 0.0%): 1.186% | Change In Mass (%) Desorption ([2]; Cycle 1, target RH 10.0%): 1.224% | Change In Mass (%) Desorption ([2]; Cycle 1, target RH 20.0%): 1.257% | Change In Mass (%) Desorption ([2]; Cycle 1, target RH 30.0%): 1.298% | Change In Mass (%) Desorption ([2]; Cycle 1, target RH 40.0%): 1.333% | Change In Mass (%) Hysteresis ([2]; Cycle 1, target RH 40.0%): 1.332% | Change In Mass (%) Sorption ([2]; Cycle 1, target RH 40.0%): 0.001% | Change In Mass (%) Desorption ([2]; Cycle 1, target RH 50.0%): 1.368% | Change In Mass (%) Hysteresis ([2]; Cycle 1, target RH 50.0%): 1.101% | Change In Mass (%) Sorption ([2]; Cycle 1, target RH 50.0%): 0.267% | Change In Mass (%) Desorption ([2]; Cycle 1, target RH 60.0%): 1.401% | Change In Mass (%) Hysteresis ([2]; Cycle 1, target RH 60.0%): 0.784% | Change In Mass (%) Sorption ([2]; Cycle 1, target RH 60.0%): 0.618% | Change In Mass (%) Desorption ([2]; Cycle 1, target RH 70.0%): 1.437% | Change In Mass (%) Hysteresis ([2]; Cycle 1, target RH 70.0%): 0.423% | Change In Mass (%) Sorption ([2]; Cycle 1, target RH 70.0%): 1.013% | Change In Mass (%) Desorption ([2]; Cycle 1, target RH 80.0%): 1.474% | Change In Mass (%) Hysteresis ([2]; Cycle 1, target RH 80.0%): 0.131% | Change In Mass (%) Sorption ([2]; Cycle 1, target RH 80.0%): 1.344% | Change In Mass (%) Desorption ([2]; Cycle 1, target RH 90.0%): 1.516% | Change In Mass (%) Sorption ([2]; Cycle 1, target RH 90.0%): 1.516% | Change In Mass (%) Desorption ([2]; Cycle 2, target RH 0.0%): 1.063% | Change In Mass (%) Sorption ([2]; Cycle 2, target RH 0.0%): 1.186% | Change In Mass (%) Desorption ([2]; Cycle 2, target RH 10.0%): 1.186% | Change In Mass (%) Hysteresis ([2]; Cycle 2, target RH 10.0%): 0.006% | Change In Mass (%) Sorption ([2]; Cycle 2, target RH 10.0%): 1.180% | Change In Mass (%) Desorption ([2]; Cycle 2, target RH 20.0%): 1.214% | Change In Mass (%) Hysteresis ([2]; Cycle 2, target RH 20.0%): 0.035% | Change In Mass (%) Sorption ([2]; Cycle 2, target RH 20.0%): 1.179% | Change In Mass (%) Desorption ([2]; Cycle 2, target RH 30.0%): 1.243% | Change In Mass (%) Hysteresis ([2]; Cycle 2, target RH 30.0%): 0.061% | Change In Mass (%) Sorption ([2]; Cycle 2, target RH 30.0%): 1.182% | Change In Mass (%) Desorption ([2]; Cycle 2, target RH 40.0%): 1.269% | Change In Mass (%) Hysteresis ([2]; Cycle 2, target RH 40.0%): 0.079% | Change In Mass (%) Sorption ([2]; Cycle 2, target RH 40.0%): 1.189% | Change In Mass (%) Desorption ([2]; Cycle 2, target RH 50.0%): 1.294% | Change In Mass (%) Hysteresis ([2]; Cycle 2, target RH 50.0%): 0.090% | Change In Mass (%) Sorption ([2]; Cycle 2, target RH 50.0%): 1.205% | Change In Mass (%) Desorption ([2]; Cycle 2, target RH 60.0%): 1.320% | Change In Mass (%) Hysteresis ([2]; Cycle 2, target RH 60.0%): 0.093% | Change In Mass (%) Sorption ([2]; Cycle 2, target RH 60.0%): 1.228% | Change In Mass (%) Desorption ([2]; Cycle 2, target RH 70.0%): 1.345% | Change In Mass (%) Hysteresis ([2]; Cycle 2, target RH 70.0%): 0.084% | Change In Mass (%) Sorption ([2]; Cycle 2, target RH 70.0%): 1.262% | Change In Mass (%) Desorption ([2]; Cycle 2, target RH 80.0%): 1.369% | Change In Mass (%) Hysteresis ([2]; Cycle 2, target RH 80.0%): 0.061% | Change In Mass (%) Sorption ([2]; Cycle 2, target RH 80.0%): 1.308% | Change In Mass (%) Desorption ([2]; Cycle 2, target RH 90.0%): 1.393% | Change In Mass (%) Sorption ([2]; Cycle 2, target RH 90.0%): 1.393% | XRPD patterns before and after exposure ([3]; 60% RH at 25° C. (7 days)): unchanged | time stable on storage (XRPD pattern and HPLC chromatograms remained the same) ([3]; room temperature): at least 5 months
SMILES: OCc1cc([C@@H](O)CNCCCCCCOCCOCc2c(Cl)cccc2Cl)ccc1O [amorphous vilanterol trifenatate, 4-((1R)-2-((6-(2-((2,6-Dichlorophenyl)methoxy)ethoxy)-hexyl)amino)-1-hydroxyethyl)-2-(hydroxymethyl)phenol triphenylacetate]

visual solubility ([1]; 1,4-dioxane at 25° C.): freely soluble | visual solubility ([1]; THF at 25° C.): freely soluble | visual solubility ([1]; ethanol at 25° C.): sparingly soluble | visual solubility ([1]; methanol at 25° C.): soluble
SMILES: OCc1cc([C@@H](O)CNCCCCCCOCCOCc2c(Cl)cccc2Cl)ccc1O [Form I, 4-((1R)-2-((6-(2-((2,6-Dichlorophenyl)methoxy)ethoxy)-hexyl)amino)-1-hydroxyethyl)-2-(hydroxymethyl)phenol triphenylacetate]
